From patent US4891360A, “6-amino anthracyclines, process for their preparation and use thereof” (Farmitalia Carlo Erba S.r.l., priority 1986, dated 1990)
Converted amounts (≈) assume the structure as drawn. Like-named read-outs stand apart in the source and are kept apart here.

Key:
[1] = tested on: Human Colon Adenocarcinoma Cell Line sensitive to doxorubicin (LoVo); test: In vitro cytotoxicity, colony inhibition test on human colon adenocarcinoma cell line sensitive to doxorubicin (LoVo); format: cell-based; settings: read-out: ID50 (dose which gives 50% reduction of cell number in comparison with untreated controls), LoVo
Method: (§1) Compound II (4-demethoxy-6-deoxy-6-aminodaunorubicin) and Compound III (4-demethoxy-6-deoxy-6-aminodoxorubicin) have been tested "in vitro" against Human Colon Adenocarcinoma Cell Line sensitive to doxorubicin (LoVo) and resistant to doxorubicin (LoVo/DX) in comparison with daunorubicin (DNR) and doxorubicin (DX).
(§2) In Vitro cytotoxicity (a) on human colon adenocarcinoma cell
(§3) line sensitive (LoVo) and resistant to doxorubicin (LoVo/DX)
(§4) (a)Colony inhibition test: 4 hours treatment
(§5) (b)dose which gives 50% reduction of cell number in comparison with
(§6) In Vitro cytotoxicity (a) on human colon adenocarcinoma
(§7) cell line sensitive (LoVo) and resistant to doxorubicin
(§8) (LoVo/DX) of 4-demethoxy-6-deoxy-6-amino DX
(§9) (a)Colony inhibition test: -24 hours treatment

[2] = tested on: Human Colon Adenocarcinoma Cell Line resistant to doxorubicin (LoVo/DX); test: In vitro cytotoxicity, colony inhibition test on human colon adenocarcinoma cell line resistant to doxorubicin (LoVo/DX); format: cell-based; settings: read-out: ID50 (dose which gives 50% reduction of cell number in comparison with untreated controls), LoVo/DX
Method: as §1, §2, §3, §4, §5, §6, §7, §8, §9

[3] = Table 1, colony inhibition test, 4 hours treatment
[4] = Table 2, colony inhibition test, 24 hours treatment

CC(=O)[C@]1(O)Cc2c(O)c3c(c(N)c2[C@@H](O[C@H]2C[C@H](N)[C@H](O)[C@H](C)O2)C1)C(=O)c1ccccc1C3=O [Compound II, 4-demethoxy-6-deoxy-6-amino daunorubicin]
IC50 [1, 3]: 0.09 µg/mL (≈ 0.181 µM) | IC50 [2, 3]: 4.4 µg/mL (≈ 8.86 µM)

C[C@@H]1O[C@@H](O[C@H]2C[C@](O)(C(=O)CO)Cc3c(O)c4c(c(N)c32)C(=O)c2ccccc2C4=O)C[C@H](N)[C@@H]1O [Compound III, 4-demethoxy-6-deoxy-6-amino doxorubicin]
IC50 [1, 4]: 0.099 µg/mL (≈ 0.193 µM) | IC50 [2, 4]: 1.15 µg/mL (≈ 2.24 µM)

COc1cccc2c1C(=O)c1c(O)c3c(c(O)c1C2=O)C[C@@](O)(C(C)=O)C[C@@H]3O[C@H]1C[C@H](N)[C@H](O)[C@H](C)O1 [DNR, daunorubicin]
IC50 ([1]; 4 h): 0.042 µg/mL (≈ 0.0796 µM) | IC50 ([2]; 4 h): 2.36 µg/mL (≈ 4.47 µM)

COc1cccc2c1C(=O)c1c(O)c3c(c(O)c1C2=O)C[C@@](O)(C(=O)CO)C[C@@H]3O[C@H]1C[C@H](N)[C@H](O)[C@H](C)O1 [DX, doxorubicin]
IC50 ([1]; 24 h): 0.0266 µg/mL (≈ 0.0489 µM) | IC50 ([2]; 24 h): 0.833 µg/mL (≈ 1.53 µM)
